From ChEMBL document CHEMBL5634101, “Discovery of NLRP3 inhibitors using machine learning: Identification of a hit compound to treat NLRP3 activation-driven diseases” (Eur J Med Chem, 2023)

Experiments:
[1] = Stability in human liver microsomes assessed as intrinsic clearance at 1.5 uM measured upto 45 mins in presence of NADPH by LC-MS/MS analysis; assay type: ADME, Microsome; conditions: read-out: CLH
[2] = Stability in human liver microsomes assessed as half-life at 1.5 uM measured upto 45 mins in presence of NADPH by LC-MS/MS analysis; assay type: ADME, Microsome

For O=C(c1ccc(F)cc1)C1CCN(CCn2c(=O)[nH]c3ccccc3c2=O)CC1 [KETANSERIN], which CLint scaled at 1.5 µM [1] is on record?
The CLint scaled at 1.5 µM was 17.3 mL/min/kg.

What about the half-life at 1.5 µM [2] of the same compound?
Its half-life at 1.5 µM is 1.68 h.
